Assay results as given in patent US5407939A, “Fluorinated 17 β-substituted 4-aza-5 α-androstan-3-one derivatives” (Farmitalia Carlo Erba S.R.L., priority 1992, dated 1995).

Experiments:
5α-reductase [1] = biological target: T1, 5α-reductase (Homo sapiens, UniProt P31213); assay: In vitro assay of 5α-reductase inhibition (particulate fraction from homogenates of hyperplastic human prostates, [14C] testosterone); format: biochemical; conditions: human prostate particulate fraction, pH 5.5, 1 μM [14C] testosterone, 30 min, 37° C.
T1 construct: particulate fraction from homogenates of hyperplastic human prostates; from tissue; host or cells: hyperplastic human prostate, particulate fraction (140,000×g pellet)
T1 sequence (P31213 1-254): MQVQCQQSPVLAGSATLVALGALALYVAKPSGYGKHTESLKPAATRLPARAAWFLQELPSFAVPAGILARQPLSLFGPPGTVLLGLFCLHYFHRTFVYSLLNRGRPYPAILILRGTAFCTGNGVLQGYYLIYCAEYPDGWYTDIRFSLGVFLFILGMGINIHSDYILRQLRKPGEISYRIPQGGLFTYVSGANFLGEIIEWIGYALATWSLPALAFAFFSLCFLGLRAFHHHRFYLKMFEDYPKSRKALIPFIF
Method: Inhibition of 5α-reductase was evaluated using the particulate fraction from homogenates of hyperplastic human prostates as the enzyme source. The particulate fraction was prepared centrifuging prostate homogenate at 140,000×g. The resulting pellet, washed several times, was resuspended in buffer and stored at -80° C. in aliquots containing ≈10 mg protein/mi.
The assay for 5α-reductase was done in a final volume of 0.5 ml, in 40 mM TRIS-HCl buffer pH 5.5, containing 1 mM dithiothreitol, 5 mM NADPH, 1 μM [^14 C] testosterone, an aliquot of the enzyme preparation and various of the inhibitors. After 30 min incubation at 37° C. the reaction was terminated by addition of 2 ml cold diethyl ether and the organic phase was separated, evaporated under N2 and resuspended in ethyl acetate. Testosterone metabolites in this extract were separated in TLC on silica gel F 254 plates (Merck), using chloroform, acetone and n-hexane (2:1:2) as developing solvent system.
Radioactivity on the plate was scanned and analyzed from quantitative plots printed by a TLC-analyzer (Berthold). The fractional 5α-reduction of testosterone was calculated by relating the ^14 C-radioactivity in the 5α-reduced metabolites (5α-dihydrotestosterone, 3α- and 3β-androstanediols) regions to the total radioactivity in the testosterone and 5α-reduced metabolites regions. […]

5α-reductase [2] = assay: In vivo inhibition of 5α-reductase (antiandrogenic effect, ventral prostate weight in castrated, testosterone-implanted rats); conditions: rat, once daily for 7 consecutive days
Method: The standard test for the antiandrogenic effect in rats was used. Prepuberal 22-day-old male rats were castrated via scrotal incision under light ether anaesthesia. […] Control animals (testosterone controls) received the vehicle (0.5 ml/kg of 0.5% Methocel/0.4% Tween 80). One group of castrated rats was not implanted with testosterone (castrated controls).
The mean percentage of inhibition of the T-induced hypertrophic response of the prostate was calculated according to the following formula: […]

`C[C@]12C=CC(=O)N[C@@H]1CC[C@@H]1[C@@H]2CC[C@]2(C)[C@@H](C(=O)NC(c3ccccc3)C(F)(F)F)CC[C@@H]12` (stereo partly drawn) [Compound 40, N-(2,2,2-trifluorophenylethyl) 3-oxo-4-aza-5α-androst-1-ene-17β-carboxamide] was tested, and the IC50 (5α-reductase [1]) was 0.021 µM and the “% INHIBITION OF PROSTATE WEIGHT AT 3 mg/kg/day p.o.” value (5α-reductase [2]) was 51%.
